Data as given in patent publication US20260193293A1, “PEPTIDES CAPABLE OF INHIBITING PROTEIN-PROTEIN INTERACTIONS AT GABAB1A SUBUNIT AND USES THEREOF” (UNIVERSITY OF COPENHAGEN, priority 2022, published 2026).
Where two headings read alike, the source gives them in different places. One block for each molecule: values may come before it. Non-standard residues stand in square brackets, D forms with d. Residues, ends and D or L forms follow the SMILES beside them. 2Nal = N[C@@H](Cc1ccc2ccccc2c1)C(=O)O; NMeD = CN[C@@H](CC(=O)O)C(=O)O; Sar = CNCC(=O)O

Molecular target: Sushi domains (SD1/2) protein
Experiment: Fluorescence polarization (FP) competition assay with AJAP-1probe, calculated Ki
Type: binding
Method in brief: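 Ki values were derived from IC50s (sigmoidal fits, ≥ triplicate), with probe Kd obtained by saturation titration of SD1/2. Peptides displaced a 25 nM TAMRA-labelled probe; polarization read at 530/580 nm in 1% BSA-containing PBS, pH 7.4, room temperature.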

[1] = Table 8, Ala-, D-amino acids and N-methylation scans of AJAP-1WT, read-out: Ki (nM) mean ± SEM
[2] = Table 10, deep mutational scanning validation variants of APPWT, read-out: Ki (nM) mean ± SEM
[3] = Table 7, Ala-, D-amino acids and N-methylation scans of APPWT, read-out: Ki (nM) mean ± SEM
[4] = Table 11, deep mutational scanning validation variants of AJAP-1WT, read-out: Ki (nM) mean ± SEM
[5] = Table 13, peptides for affinity maturation, read-out: Ki (nM) mean ± SEM
[6] = Table 12, deep mutational scanning validation variants of PIANPWT, read-out: Ki (nM) mean ± SEM

SMILES: CC[C@H](C)[C@H](NC(=O)[C@H](Cc1ccccc1)NC(=O)[C@H](CCC(=O)O)NC(=O)[C@@H](NC(=O)[C@H](CCC(=O)O)NC(C)=O)[C@@H](C)O)C(=O)N[C@@H](C)C(=O)N[C@@H](Cc1c[nH]c2ccccc12)C(=O)NCC(=O)N1CCC[C@H]1C(=O)N[C@H](C(=O)NCC(=O)N[C@@H](CC(=O)O)C(=O)N[C@@H](CCC(=O)O)C(=O)N[C@@H](CC(=O)O)C(N)=O)[C@@H](C)CC [ETEFIAWGPIGDED] (Ac-ETEFIAWGPIGDED-NH2)
Ki [1]: 48 ± 2 nM

SMILES: CC(=O)N[C@H](C(=O)N[C@@H](Cc1c[nH]c2ccccc12)C(=O)NCC(=O)N1CCC[C@H]1C(=O)N[C@H](C(=O)N[C@H](C(=O)N[C@@H](CO)C(=O)N[C@@H](CCCNC(=N)N)C(=O)N[C@@H](CCC(=O)O)C(=O)N[C@@H](CC(=O)O)C(=O)NCC(N)=O)C(C)C)[C@@H](C)O)C(C)C (Ac-VWGPTVSREDG-NH2)
Ki (Table 6, elongation and truncation scan of PIANP binding epitope, read-out: Ki (nM) mean ± SEM): 1740 ± 62 nM

SMILES: CC[C@H](C)[C@H](NC(=O)[C@H](Cc1ccccc1)NC(=O)[C@H](CCC(=O)O)NC(=O)[C@@H](NC(=O)[C@H](CCC(=O)O)NC(C)=O)[C@@H](C)O)C(=O)N[C@@H](C)C(=O)N[C@@H](Cc1c[nH]c2ccccc12)C(=O)NCC(=O)N1CCC[C@H]1C(=O)N[C@H](C(=O)NCC(=O)N(C)[C@@H](CC(=O)O)C(=O)N[C@@H](CCC(=O)O)C(=O)N[C@@H](CC(=O)O)C(N)=O)[C@@H](C)O (Ac-ETEFIAWGPTG[NMeD]ED-NH2)
Ki [1]: 45 ± 2 nM

SMILES: CC[C@H](C)[C@H](NC(=O)[C@H](Cc1ccccc1)NC(=O)[C@H](CCC(=O)O)NC(=O)[C@@H](NC(=O)[C@H](CCC(=O)O)NC(C)=O)[C@@H](C)O)C(=O)N[C@@H](C)C(=O)N[C@@H](Cc1c[nH]c2ccccc12)C(=O)NCC(=O)N1CCC[C@H]1C(=O)N[C@H](C(=O)NCC(=O)N[C@@H](CC(=O)O)C(=O)N[C@@H](CC(=O)O)C(=O)N[C@@H](CC(=O)O)C(N)=O)[C@@H](C)O (Ac-ETEFIAWGPTGDDD-NH2)
Ki [4]: 27 ± 2 nM

SMILES: CC[C@H](C)[C@H](NC(=O)[C@H](C)NC(=O)[C@H](Cc1c[nH]c2ccccc12)NC(=O)[C@@H]1CCCN1C(C)=O)C(=O)N[C@H](C(=O)N[C@@H](Cc1c[nH]c2ccccc12)C(=O)NCC(=O)N1CCC[C@H]1C(=O)N[C@H](C(=O)N[C@H](C(=O)N[C@@H](CC(=O)O)C(=O)N[C@@H](CCCNC(=N)N)C(=O)N[C@@H](CCC(=O)O)C(=O)N[C@@H](CC(=O)O)C(N)=O)C(C)C)[C@@H](C)O)C(C)C [PWAIVWGPTVDRED] (Ac-PWAIVWGPTVDRED-NH2)
Ki [6]: 379 ± 9 nM

SMILES: CC[C@H](C)[C@H](NC(=O)[C@H](Cc1ccc(O)cc1)NC(=O)[C@H](Cc1c[nH]c2ccccc12)NC(=O)[C@@H]1CCCN1C(C)=O)C(=O)N[C@H](C(=O)N[C@@H](Cc1c[nH]c2ccccc12)C(=O)NCC(=O)N1CCC[C@H]1C(=O)N[C@H](C(=O)N[C@H](C(=O)N[C@@H](CO)C(=O)N[C@@H](CCCNC(=N)N)C(=O)N[C@@H](CCC(=O)O)C(=O)N[C@@H](CC(=O)O)C(N)=O)C(C)C)[C@@H](C)O)C(C)C [PWYIVWGPTVSRED] (Ac-PWYIVWGPTVSRED-NH2)
Ki [6]: 336 ± 2 nM

SMILES: CC[C@H](C)[C@H](NC(=O)[C@H](Cc1c[nH]c2ccccc12)NC(=O)[C@H](CCC(=O)O)NC(=O)[C@@H](NC(=O)[C@H](CCC(=O)O)NC(C)=O)[C@@H](C)O)C(=O)N[C@@H](C)C(=O)N[C@@H](Cc1c[nH]c2ccccc12)C(=O)NCC(=O)N1CCC[C@H]1C(=O)N[C@H](C(=O)NCC(=O)N[C@@H](CC(=O)O)C(=O)N[C@@H](CCC(=O)O)C(=O)N[C@@H](CC(=O)O)C(N)=O)[C@@H](C)O [ETEWIAWGPTGDED] (Ac-ETEWIAWGPTGDED-NH2)
Ki [4]: 35 ± 2 nM

More lines, now with the values ahead:

Ki [2]: 191 ± 10 nM
SMILES: CC(=O)N[C@@H](CCC(=O)O)C(=O)N[C@@H](CC(=O)O)C(=O)N[C@@H](CC(=O)O)C(=O)N[C@@H](CO)C(=O)N[C@@H](Cc1ccc(O)cc1)C(=O)N[C@H](C(=O)N[C@@H](Cc1c[nH]c2ccccc12)C(=O)N[C@@H](Cc1c[nH]c2ccccc12)C(=O)NCC(=O)NCC(=O)N[C@@H](C)C(=O)N[C@@H](CC(=O)O)C(=O)N[C@H](C(=O)N[C@@H](CC(=O)O)C(N)=O)[C@@H](C)O)C(C)C (Ac-EDDSYVWWGGADTD-NH2)

Ki [3]: 1240 ± 65 nM
SMILES: CC(=O)N[C@@H](CCC(=O)O)C(=O)N[C@@H](C)C(=O)N[C@@H](CC(=O)O)C(=O)N[C@@H](CO)C(=O)N[C@@H](CC(=O)O)C(=O)N[C@H](C(=O)N[C@@H](Cc1c[nH]c2ccccc12)C(=O)N[C@@H](Cc1c[nH]c2ccccc12)C(=O)NCC(=O)NCC(=O)N[C@@H](C)C(=O)N[C@@H](CC(=O)O)C(=O)N[C@H](C(=O)N[C@@H](CC(=O)O)C(N)=O)[C@@H](C)O)C(C)C (Ac-EADSDVWWGGADTD-NH2)

Ki [2]: 3600 ± 49 nM
SMILES: CC(=O)N[C@@H](CCC(=O)O)C(=O)N[C@@H](CC(=O)O)C(=O)N[C@@H](CC(=O)O)C(=O)N[C@@H](CO)C(=O)N[C@@H](CC(=O)O)C(=O)N[C@H](C(=O)N[C@@H](Cc1ccc(O)cc1)C(=O)N[C@@H](Cc1c[nH]c2ccccc12)C(=O)NCC(=O)NCC(=O)N[C@@H](C)C(=O)N[C@@H](CC(=O)O)C(=O)N[C@H](C(=O)N[C@@H](CC(=O)O)C(N)=O)[C@@H](C)O)C(C)C (Ac-EDDSDVYWGGADTD-NH2)

Ki [3]: 18900 ± 554 nM
SMILES: CC(=O)N[C@@H](CCC(=O)O)C(=O)N[C@@H](CC(=O)O)C(=O)N[C@@H](CC(=O)O)C(=O)N[C@@H](CO)C(=O)N[C@@H](CC(=O)O)C(=O)N[C@H](C(=O)N[C@@H](Cc1c[nH]c2ccccc12)C(=O)N[C@@H](Cc1c[nH]c2ccccc12)C(=O)N(C)CC(=O)NCC(=O)N[C@@H](C)C(=O)N[C@@H](CC(=O)O)C(=O)N[C@H](C(=O)N[C@@H](CC(=O)O)C(N)=O)[C@@H](C)O)C(C)C (Ac-EDDSDVWW[Sar]GADTD-NH2)

Ki [4]: 199 ± 10 nM
Ki [5]: 199 ± 10 nM
SMILES: CC[C@H](C)[C@H](NC(=O)[C@H](Cc1ccccc1)NC(=O)[C@H](CCC(=O)O)NC(=O)[C@@H](NC(=O)[C@H](CCC(=O)O)NC(C)=O)[C@@H](C)O)C(=O)N[C@@H](C)C(=O)N[C@@H](Cc1c[nH]c2ccccc12)C(=O)N[C@@H](Cc1ccc(O)cc1)C(=O)N1CCC[C@H]1C(=O)N[C@H](C(=O)NCC(=O)N[C@@H](CC(=O)O)C(=O)N[C@@H](CCC(=O)O)C(=O)N[C@@H](CC(=O)O)C(N)=O)[C@@H](C)O [ETEFIAWYPTGDED] (Ac-ETEFIAWYPTGDED-NH2)

Ki (Table 1, affinity maturation, mean ± SEM, n ≥ 3, read-out: Ki): 18 ± 1 nM
Ki [5]: 18 ± 1 nM
SMILES: CC[C@H](C)[C@H](NC(=O)[C@H](Cc1c[nH]c2ccccc12)NC(=O)[C@H](CO)NC(=O)[C@H](CC(=O)O)NC(=O)[C@H](CC(=O)O)NC(=O)[C@H](CCC(=O)O)NC(C)=O)C(=O)N[C@@H](Cc1c[nH]c2ccccc12)C(=O)N[C@@H](Cc1c[nH]c2ccccc12)C(=O)N[C@@H](Cc1ccc(O)cc1)C(=O)NCC(=O)N[C@@H](C)C(=O)N[C@@H](CC(=O)O)C(=O)N[C@H](C(=O)N[C@@H](CC(=O)O)C(N)=O)[C@@H](C)O [Peptide 28] (Ac-EDDSWIWWYGADTD-NH2)

Ki (Table 16, ncAAs incorporated peptides, read-out: Ki (nM) mean ± SEM): 75 ± 1 nM
SMILES: CC(=O)N[C@@H](CCC(=O)O)C(=O)N[C@@H](CC(=O)O)C(=O)N[C@@H](CC(=O)O)C(=O)N[C@@H](CO)C(=O)N[C@@H](CC(=O)O)C(=O)N[C@H](C(=O)N[C@@H](Cc1c[nH]c2ccccc12)C(=O)N[C@@H](Cc1c[nH]c2ccccc12)C(=O)N[C@@H](Cc1ccc2ccccc2c1)C(=O)NCC(=O)N[C@@H](C)C(=O)N[C@@H](CC(=O)O)C(=O)N[C@H](C(=O)N[C@@H](CC(=O)O)C(N)=O)[C@@H](C)O)C(C)C (Ac-EDDSDVWW[2Nal]GADTD-NH2)
